Reference: ChEMBL document CHEMBL3769343, “Spiromastilactones: A new class of influenza virus inhibitors from deep-sea fungus” (Eur J Med Chem, 2016)
pEC50, pIC50, pKd: −log10 of the molar value.

Legend:
[1] = Cytotoxicity against MDCK cells after 40 hrs by Celltiter-Glo assay; format: cell-based, Canis lupus familiaris; details: dog
Influenza A virus = assay: Antiviral activity against Influenza A virus A/WSN/1933 (H1N1) infected in MDCK cells assessed as protection against virus induced cytopathic effect after 40 hrs by Celltiter-Glo assay; format: functional, organism-based
Influenza B virus = assay: Antiviral activity against influenza B virus B/SZ/155 infected in dog MDCK cells assessed as inhibition of virus induced cytopathic effect after 40 hrs by Cell-Titer-Glo assay; format: functional, organism-based; details: B/SZ/155, MDCK
[2] = Inhibition of Influenza A virus A/WSN/33 (H1N1) HA1 protein by surface plasmon resonance assay; set-up: species or system Influenza A virus (A/WSN/1933(H1N1))
[3] = test system: Influenza A virus (A/WSN/1933(H1N1)); assay: Binding affinity to Influenza A virus A/WSN/33 (H1N1) HA1 protein by surface plasmon resonance assay
[4] = test system: Influenza A virus (A/WSN/1933(H1N1)); assay: Binding affinity to Influenza A virus A/WSN/33 (H1N1) HA1 protein assessed as decrease in protein affinity to sialic acid receptor at 5 uM by surface plasmon resonance assay
[5] = test system: Influenza A virus (A/WSN/1933(H1N1)); assay: Binding affinity to Influenza A virus A/WSN/33 (H1N1) HA1 protein assessed as decrease in protein affinity to sialic acid receptor at 0.625 uM by surface plasmon resonance assay
[6] = Binding affinity to Influenza A virus A/WSN/33 (H1N1) HA1 protein assessed as decrease in protein affinity to sialic acid receptor by surface plasmon resonance assay (reference value: 70 nM); set-up: species or system Influenza A virus (A/WSN/1933(H1N1))
[7] = test system: Influenza A virus (A/WSN/1933(H1N1)); assay: Binding affinity to Influenza A virus A/WSN/33 (H1N1) HA1 protein assessed as decrease in protein affinity to sialic acid receptor at 1.25 uM by surface plasmon resonance assay
[8] = test system: Influenza A virus (A/WSN/1933(H1N1)); assay: Binding affinity to Influenza A virus A/WSN/33 (H1N1) HA1 protein assessed as decrease in protein affinity to sialic acid receptor at 10 uM by surface plasmon resonance assay
[9] = Binding affinity to Influenza A virus A/WSN/33 (H1N1) HA1 protein assessed as decrease in protein affinity to sialic acid receptor by measuring dissociation constant by surface plasmon resonance assay (reference value: 0.001473/Ms); set-up: species or system Influenza A virus (A/WSN/1933(H1N1))
[10] = test system: Influenza A virus (A/WSN/1933(H1N1)); assay: Binding affinity to Influenza A virus A/WSN/33 (H1N1) HA1 protein assessed as decrease in protein affinity to sialic acid receptor at 20 uM by surface plasmon resonance assay
[11] = test system: Influenza A virus (A/WSN/1933(H1N1)); assay: Binding affinity to Influenza A virus A/WSN/33 (H1N1) HA1 protein assessed as decrease in protein affinity to sialic acid receptor by measuring association constant by surface plasmon resonance assay (reference value: 20810/s)
[12] = test system: Influenza A virus (A/WSN/1933(H1N1)); assay: Binding affinity to Influenza A virus A/WSN/33 (H1N1) HA1 protein assessed as decrease in protein affinity to sialic acid receptor at 2.5 uM by surface plasmon resonance assay

`CCCc1cc(O)cc(O)c1C(=O)O` showed a CC50 at 40 h [1] of over 100 µM and a pIC50 (Influenza A virus) of under 4.00.
Work on `NC12CC3CC(CC(C3)C1)C2` [AMANTADINE] yielded a pEC50 (Influenza B virus) of 3.84, a CC50 at 40 h [1] of over 100 µM and a pIC50 (Influenza A virus) of 4.89.
`CCCc1cc(O)c(Cl)c(O)c1Oc1c(Cl)c(O)c(Cl)c2c1C(=O)O[C@@H]2CC` showed a pIC50 [2] of 4.51, a CC50 at 40 h [1] of over 100 µM and a pIC50 (Influenza A virus) of 4.51. It also gave a Ka [3] of 0.67 ×10⁴ /Ms.
Molecule `CCOC(=O)c1c(CSc2ccccc2)n(C)c2cc(Br)c(O)c(CN(C)C)c12` [UMIFENOVIR] has an Activity [4] of 20.7 RU, an Activity [5] of -1.8 RU and a pKd [6] of 7.09. It also gave an Activity [7] of 1.2 RU, an Activity [8] of 48.7 RU and a Kd [9] of 0.0009582 M⁻¹ s⁻¹. For the same molecule, the Activity [10] was 102 RU, the Ka [11] was 11800 s⁻¹ and the Activity [12] was 7.5 RU.
`CCCc1c(Cl)c(O)c(Cl)c(O)c1Oc1c(Cl)c(O)c(Cl)c2c1C(=O)O[C@@H]2CC` gave a CC50 at 40 h [1] of over 50 µM and a pIC50 (Influenza A virus) of 4.42.
With `CCCc1c(Cl)c(O)cc(O)c1Oc1c(Cl)c(O)c(Cl)c2c1C(=O)O[C@@H]2CC` the CC50 at 40 h [1] was over 50 µM and the pIC50 (Influenza A virus) was 4.56.
Molecule `CC[C@H]1OC(=O)c2c(O)c(Cl)c(O)c(Cl)c21` has a CC50 at 40 h [1] of over 100 µM and a pIC50 (Influenza A virus) of under 4.00.
In the case of `CCCc1c(Cl)c(OC)cc(O)c1Oc1c(Cl)c(O)c(Cl)c2c1C(=O)O[C@@H]2CC`, the CC50 at 40 h [1] was over 50 µM and the pIC50 (Influenza A virus) was under 4.30.
`CCCc1cc(O)cc(OC)c1Oc1c(Cl)c(O)c(Cl)c2c1C(=O)O[C@@H]2CC` gave a pIC50 [2] of 4.13, an Activity [4] of 27.1 RU and a CC50 at 40 h [1] of over 100 µM. It also gave an Activity [5] of 3.4 RU, a pKd [6] of 6.65 and an Activity [7] of 7 RU. It also gave a pIC50 (Influenza A virus) of 4.13, an Activity [8] of 55.1 RU and a Kd [9] of 0.0007964 M⁻¹ s⁻¹. It also gave an Activity [10] of 114 RU, a Ka [11] of 3560 s⁻¹ and a Ka [3] of 0.46 ×10⁴ /Ms. It also gave an Activity [12] of 13 RU.
